Measured values reported in patent US8481489B2, “GH secretagogues and uses thereof” (Theratechnologies Inc., priority 2003, dated 2013).
“Also recorded” adds a separate entry of the source.

Tests used:
In vitro half-life = assay type: in vitro ADME
Text: The safety profile of TH9507 is generally good.

[1] = system: patients exhibiting sleep maintenance insomnia; assay: Continuous Performance Test (CPT), 14-day study in sleep maintenance insomnia; assay type: in vivo, human; conditions: 14 days
Experimental: Patients were selected based on the Pittsburgh Sleep Quality Index (Score ≧5), the Walters Criteria for Sleep Maintenance Insomnia, and the Beck Questionnaire (Score ≦17). The primary exclusion criteria were other primary sleep disorders and the use of any products affecting sleep or vigilance in the 30 days prior to entering the study.
The study was a randomized, double-blind, placebo-controlled, parallel group and multicenter evaluation of two doses of TH9507 (0.1 mg and 1 mg) administered daily by subcutaneous injection at bedtime for 14 consecutive days. To evaluate vigilance and the performance in the morning, patients underwent a battery of cognitive tests including the Continuous Performance Test (CPT) at baseline and at the end of treatment period.
The CPT has been described in the literature as a measure of consistency in responding and ability to sustain attention over time (Aleman A, et al., J Clin Endocrinol Metab 1999 84(2):471-475). This test required subjects to press space bar each time the letter “A” was followed by “X”. Omission and commission errors, and Mean Reaction Time of correct responses were analyzed.

[2] = system: healthy subjects exhibiting age-related sleep impairment; assay: P300 event-related potential test, 7-day cross-over study; assay type: in vivo, human; conditions: 1 mg daily for 7 days
Experimental: In this study, TH9507 was administered daily for 7 days in a cross-over design. […] Changes from Baseline to day 9 in the Pz amplitude of the Evoked Related Potential (P300) observed in the placebo and 1 mg group were as follows: Placebo, −15%; 1 mg, +55%, P=0.0114, as analyzed by an ANOVA model.

[3] = Safety profile in the two vigilance studies; assay type: in vivo, human
[4] = system: type II diabetic patients; assay: Glucose control in type II diabetic patients; assay type: in vivo, human; conditions: for glycosylated hemoglobin (HbA1c) levels: Week 12
Experimental: A double-blind placebo-controlled study was conducted in 53 type II diabetic patients (age=61±7 [SD]; 34% female) on stable antidiabetic medication (26% on insulin). Patients were randomized to parallel groups to receive daily subcutaneous administration of a placebo, 1 mg or 2 mg TH9507, respectively.
Clinically relevant changes in antidiabetic medications occurred with a similar incidence in the three treatment groups.

[5] = system: HIV-infected patients with abdominal fat accumulation; assay: Quality of life questionnaire (PLC), HIV lipodystrophy study; assay type: in vivo, human
Experimental: A health-related quality of life questionnaire (PLC, Quality of Life Profile for the Chronically Ill) was self-administered to 61 patients randomized to receive placebo or TH9507 at 1 or 2 mg s.c. daily. The PLC questionnaire included a general, non-specific part assessing 6 dimensions of global health as well as a disease specific part capturing impact of enlarged abdominal girth, abdominal bloating, tenseness and pain, as well as diarrhea, visible facial changes, visible changes in physical appearance, and the feeling of being recognized as an HIV positive person.
Study population included 54 men and 7 women. […] Slight changes were observed within the treated groups in the positive mood and social well-being scores but were not considered clinically significant.

[6] = system: type II diabetic patients; conditions: patients with Type II DM, daily dose up to 2 mg; reference (15); cited from earlier work
[7] = system: HIV-infected patients with abdominal fat accumulation; assay: Abdominal VAT and SAT by cross-sectional CT, HIV lipodystrophy study; conditions: for SAT, Δ / VAT, Δ: change from baseline, Week 12, mean (SD)
Experimental: Design: Randomized, placebo-controlled, multi-center, dose ranging (placebo, 1 mg or 2 mg SC QD), parallel group, 12-week study
Patients: 61 HIV-infected patients (BMI 28±3 [SD] kg/m^2, 28% diabetic or glucose intolerant) with increased waist circumference (102 cm±8 [SD]) and waist/hip (1.0±0.1 [SD])
At the baseline visit, anthropometric measurements were obtained. Total body lean and fat mass as well as regional fat mass in the trunk and extremities were assessed by DEXA. Abdominal subcutaneous and visceral fat area and the ratio of VAT to SAT were determined by cross-sectional CT at L4-L5.
Whole body and regional DEXA (dual energy X-ray absorptiometry) and cross-sectional abdominal CT scans were performed at the individual study sites based on previously established protocols and were standardized across sites. Digitized images were sent to a central reading center, St. Lukes Roosevelt Hospital, for analysis by independent experts without knowledge of treatment assignment. Each site was given a procedure manual to follow in obtaining the body composition data and was certified in the proper technique. For the CT scans, parameters were standardized as follows: Tube Voltage=120 kV, Tube Current=250 mA, Exposure=375 mAs, matrix 512×512. DFOV was set to include the entire slice into the field of view. For the DEXA scans total body scans were performed with analysis of lean body mass, total fat mass, and regional fat mass in the trunk and extremities as previously described (16).
Body composition endpoints included trunk fat and trunk to limb fat ratio by DEXA and VAT and VAT:SAT by CT scan. […] Baseline data are compared between the groups by F-test based on ANOVA for continuous variables and Chi-Square test for categorical variables. Change over time between groups is compared by ANOVA or the Chi-Square test. Where appropriate, data were rank transformed prior to analysis. Changes within each group are determined by t-test. The ITT (intent to treat) population is defined as all subjects who received at least one dose of the study treatment. Descriptive statistics and analyses for all efficacy and safety analyses are performed on the ITT population. End of study, 12 week, data are used to calculate changes in body composition. […] Imputation for missing data is not performed. For body composition, end of study data are used to calculate change. […] Results are mean (SD) unless otherwise noted. All statistical tests were performed with a two-sided Type I error level of 0.05.

With `CC/C=C/CC(=O)N[C@@H](Cc1ccc(O)cc1)C(=O)N[C@@H](C)C(=O)N[C@@H](CC(=O)O)C(=O)N[C@@H](C)C(=O)N[C@H](C(=O)N[C@@H](Cc1ccccc1)C(=O)N[C@H](C(=O)N[C@@H](CC(N)=O)C(=O)N[C@@H](CO)C(=O)N[C@@H](Cc1ccc(O)cc1)C(=O)N[C@@H](CCCNC(=N)N)C(=O)N[C@@H](CCCCN)C(=O)N[C@H](C(=O)N[C@@H](CC(C)C)C(=O)NCC(=O)N[C@@H](CCC(N)=O)C(=O)N[C@@H](CC(C)C)C(=O)N[C@@H](CO)C(=O)N[C@@H](C)C(=O)N[C@@H](CCCNC(=N)N)C(=O)N[C@@H](CCCCN)C(=O)N[C@@H](CC(C)C)C(=O)N[C@@H](CC(C)C)C(=O)N[C@@H](CCC(N)=O)C(=O)N[C@@H](CC(=O)O)C(=O)N[C@H](C(=O)N[C@@H](CCSC)C(=O)N[C@@H](CO)C(=O)N[C@@H](CCCNC(=N)N)C(=O)N[C@@H](CCC(N)=O)C(=O)N[C@@H](CCC(N)=O)C(=O)NCC(=O)N[C@@H](CCC(=O)O)C(=O)N[C@@H](CO)C(=O)N[C@@H](CC(N)=O)C(=O)N[C@@H](CCC(N)=O)C(=O)N[C@@H](CCC(=O)O)C(=O)N[C@@H](CCCNC(=N)N)C(=O)NCC(=O)N[C@@H](C)C(=O)N[C@@H](CCCNC(=N)N)C(=O)N[C@@H](C)C(=O)N[C@@H](CCCNC(=N)N)C(=O)N[C@@H](CC(C)C)C(N)=O)[C@@H](C)CC)C(C)C)[C@@H](C)O)[C@@H](C)CC` [TH9507, (hexenoyl trans-3)hGRF(1-44)NH2] the half-life (In vitro half-life) was 3 to 8 h, the “Mean Reaction Time of the CPT, decrease from baseline” value ([1]; 0.1 mg SC daily at bedtime, baseline to day 9) was 45.85 ms and the “Mean Reaction Time of the CPT vs placebo” value ([1]; 1 mg SC daily at bedtime) was “No significant effect”. The “Change from Baseline to day 9 in the Pz amplitude of the Evoked Related Potential (P300)” value [2] was “+55%”, the “reactions at the site of injection” value ([3]; 1 mg, insomnia study, vs placebo) was “higher incidence” and the safety profile ([3]; both vigilance studies) was “comparable to that of the placebo”. For the same molecule, the “glycosylated hemoglobin (HbA1c) levels” value ([4]; 1 mg) was “a decrease”, the “glycosylated hemoglobin (HbA1c) levels” value ([4]; 2 mg) was “no change” and the “insulin relative response to an oral glucose tolerance test, between groups” value ([4]; placebo, 1 mg, 2 mg, treatment period) was “No statistically significant differences”. The “abdominal pain (PLC)” value ([5]; 1 mg only, P<0.05 vs baseline, NS vs placebo) was “Improvement”, the “bloating score change (PLC)” value ([5]; 1 mg s.c. daily) was −0.50 and the “enlarged abdominal girth score change (PLC)” value ([5]; 1 mg s.c. daily) was −0.93. For the same molecule, the “tenseness (PLC)” value ([5]; 1 mg, P=0.07 vs baseline, NS vs placebo) was “trend for improvement”, the “bloating score change (PLC)” value ([5]; 2 mg s.c. daily) was −0.69 and the “enlarged abdominal girth score change (PLC)” value ([5]; 2 mg s.c. daily) was −1.19. For the same molecule, the “subscales of the main portion of the PLC, between groups” value ([5]; 1 or 2 mg s.c. daily) was “No significant difference”, the overall glycemic control [6] was “not shown to aggravate overall glycemic control” and the “Visceral fat (VAT) change” value ([7]; 1 mg SC QD, 12 weeks) was −3.6%. The “SAT, Δ” value ([7]; 1 mg SC QD) was 6.8 (21.2) cm^2, the “VAT, Δ” value ([7]; 1 mg SC QD) was −11.9 (28.7) cm^2 and the “Visceral fat (VAT) change” value ([7]; 2 mg SC QD, 12 weeks) was −15.7%. For the same molecule, the “SAT, Δ” value ([7]; 2 mg SC QD) was 4.4 (19.8) cm^2, the “VAT, Δ” value ([7]; 2 mg SC QD) was −21.5 (27.9)* cm^2 and the “Visceral fat decrease within group” value ([7]; 2 mg, over 3 months) was “more than 15%”. For the same molecule, the “subcutaneous fat (SAT)” value ([7]; 1 and 2 mg SC QD, 12 weeks, between or within groups) was “preserved; also recorded: did not change significantly”.
